Test system: MV-4-11 cells
Assay: Gene expression microarray analysis (Affymetrix PrimeView) and GSEA
Type: cell-based, human
Conditions: ProbeSet 11733176_x_at; LIST B

Nc1ncn([C@@H]2O[C@H](CO)[C@@H](O)[C@H]2O)c(=O)n1 [azacitidine]
RFU, ZNF507: 25.77 RFU

Source: PMC5218480 (PLoS ONE, 2017)
